This is an account of results in patent US12577217B2, “15-PGDH inhibitor” (KYORIN Pharmaceutical Co., Ltd., priority 2019, dated 2026).

The structures appear in SMILES notation. Where a name gives a salt, the structure may show the parent alone.

The assay concerns the target T1, recombinant human 15-PGDH (Homo sapiens, UniProt P15428).
T1 construct: purchased R&D Systems
T1 sequence (P15428 1-266): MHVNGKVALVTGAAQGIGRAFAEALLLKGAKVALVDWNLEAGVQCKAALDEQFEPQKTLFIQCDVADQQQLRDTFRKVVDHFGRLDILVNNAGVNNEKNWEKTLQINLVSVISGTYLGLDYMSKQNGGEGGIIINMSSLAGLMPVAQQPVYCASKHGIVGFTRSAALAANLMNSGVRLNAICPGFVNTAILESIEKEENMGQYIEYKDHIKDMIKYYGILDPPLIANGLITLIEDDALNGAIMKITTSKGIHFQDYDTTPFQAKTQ
Put plainly: 15-PGDH enzyme inhibition test. Particulars: 4 nM recombinant human 15-PGDH, 30 μM PGE2, 1 mM NAD+, 60 minutes after starting the reaction; read-out: IC50 Value. The assay is classed as biochemical. As for the experimental part: 15-PGDH Enzyme Inhibition Test
A test compound and 4 nM recombinant human 15-PGDH (R&D Systems) were added, in 50 mM Tris-HCl (pH 8.0) containing 0.01% TWEEN 20 (Sigma) and 0.01% bovine gamma globulin (Sigma), to a 384-well Flat Bottom Black plate (Corning, 3820), and the resultant was allowed to stand still at room temperature for 12 minutes, and 30 μM PGE2 (Cayman Chemical) and 1 mM NAD+ (Sigma) were added thereto to start the reaction. 60 minutes after starting the reaction, measurement was performed using Synergy 2 (BioTeck) at an excitation wavelength of 340 nm and a fluorescence wavelength of 440 nm. Assuming that a fluorescence signal obtained with an assay buffer added instead of the test compound and NAD+ was 100% and that a signal obtained with NAD+ added was 0%, a concentration corresponding to 50% inhibition plotted on a concentration-reaction curve of the test compound was defined as an IC50 value. Incidentally, in the following tables, an IC50 value smaller than 10 nM was shown as +++, an IC50 value equal to or larger than 10 nM and smaller than 100 nM was shown as ++, and an IC50 value equal to or larger than 100 nM was shown as +.

Turning to `O=C(c1cnc2c(c1)OCCN2c1ccc2c(c1)CN(C1CC1)C2=O)N1CCCCC1` [Example 1-224], the IC50 was below 10 nM.
The result for `COC(=O)c1cc2sc(N3CCOc4cc(C(=O)N5CCCCC5)cnc43)cc2s1` [Example 1-24] reads below 10 nM; that for `CC1c2cc(N3CCOc4cc(C(=O)N5CCCCC5)cnc43)ccc2C(=O)N1C` (single isomer, unassigned) [16-1 Isomer B, 2,3-Dimethyl-5-(7-(piperidine-1-carbonyl)-2,3-dihydro-4H-pyrido[3,2-b] [1,4]oxazin-4-yl)isoindolin-1-one], below 10 nM; that for `COc1cc(N2CCOc3cc(C(=O)N4CCCCC4)cnc32)ccc1S(C)(=O)=O` [Example 1-255], 10 to 100 nM.
The result for `CCn1nc2cc(N3CCCc4cc(C(=O)N5CCC[C@@H](C)C5)cnc43)ccn2c1=O` [Example 8-159] reads below 10 nM; that for `COC(=O)c1ccc2cc(N3CCOc4cc(C(=O)N5CCCCC5)cnc43)nn2c1` [Example 11-6], below 10 nM.
With `CCn1nc2cc(N3CCCc4cc(C(=O)N5CCCCCCC5)cnc43)ccn2c1=O` [Example 8-150] the figure was below 10 nM.
`COCn1nc2cc(N3CCCc4cc(C(=O)N5CCCCC5)cnc43)ccn2c1=O` [Example 1-53]: the IC50 was below 10 nM.
With `O=C(c1cnc2c(c1)OCCN2c1ccn2c(=O)n(Cc3ccc(F)c(F)c3)nc2c1)N1CCC(F)(F)CC1` [Example 27-6] the figure was below 10 nM; with `Cn1nc2cc(N3CCOc4cc(S(=O)(=O)C5CCCCC5)cnc43)ccn2c1=O` [Example 7-6], above 100 nM; with `O=C1NCc2cc(N3CCOc4cc(C(=O)N5CCCCC5)cnc43)ccc21` [Example 14-2], below 10 nM.
The result for `COc1noc2cc(N3CCOc4cc(C(=O)N5CCCCC5)cnc43)ccc12` [Example 1-20] reads below 10 nM.
With `O=C(c1cnc2c(c1)CCCN2c1ccc2c(c1)CN(C1COC1)C2=O)N1CCCCC1` [Example 1-66] the figure was below 10 nM.
Regarding `CN1Cc2cc(N3CCOc4cc(C(=O)N5CCC(F)(F)CC5)cnc43)cnc2C1=O` [Example 1-45], the half-maximal inhibitory concentration (IC50) is below 10 nM.
The result for `CNC(=O)c1ccc(N2CCCc3cc(C(=O)N4CCCCC4)cnc32)cc1F` [Example 1-59] reads below 10 nM; that for `Cn1nc2cc(N3CCCOc4cc(C(=O)N5CCC[C@H](F)C5)cnc43)ccn2c1=O` [Example 8-63], below 10 nM.
With `COCn1nc2cc(N3CCCc4cc(C(=O)N5CCC(F)(F)C(C)C5)cnc43)ccn2c1=O` (stereo not shown) [Example 8-117] the figure was below 10 nM; with `CCn1nc2cc(N3CCCc4cc(C(=O)N5CCCCC5)cnc43)ccn2c1=O` [Example 1-54], below 10 nM; with `CCn1nc2cc(N3CCCc4cc(C(=O)N5CCN(C)CC5)cnc43)ccn2c1=O` [Example 8-152], 10 to 100 nM.
The result for `COCCN1Cc2cc(N3CCCc4cc(C(=O)N5CCCCC5)cnc43)ccc2C1=O` [Example 1-64] reads below 10 nM; that for `Cn1ccc2cc(N3CCOc4cc(C(=O)N5CCCCC5)cnc43)ccc2c1=O` [Example 1-217], below 10 nM.
Turning to `O=C(c1cnc2c(c1)CCCN2c1ccc2c(c1)CN(CC1COC1)C2=O)N1CCC(F)(F)CC1` [Example 1-177], the IC50 is below 10 nM.
With `O=C(c1cnc2c(c1)OCCN2c1ccn2c(=O)n(Cc3ccccc3)nc2c1)N1CCCCC1` [Example 1-31] the figure was below 10 nM; with `Cn1nnc(-c2ccc(N3CCCc4cc(C(=O)N5CCCCC5)cnc43)cc2)n1` [Example 1-201], below 10 nM.
With `CNC(=O)c1ccc(N2CCCc3cc(C(=O)N4CCCCC4)cnc32)cc1` [Example 1-204] the figure was below 10 nM; with `C[C@@H]1CCN(C(=O)c2cnc3c(c2)OCCN3c2ccn3c(=O)n(C)nc3c2)C1` [Example 8-32], below 10 nM; with `CN1Cc2cc(N3CCOc4cc(C(=O)N5CCC5)cnc43)ccc2C1=O` [Example 8-184], below 10 nM.
With `Cn1nc2cc(N3CCOc4cc([S+]([O-])C5CCCCC5)cnc43)ccn2c1=O` (stereo not shown) [Example 7-5] the figure was below 10 nM.
`O=C(O)c1ccc(N2CCOc3cc(C(=O)N4CCCCC4)ccc32)nc1` [Example 2-21]: the IC50 was below 10 nM.
For the compound `COCCN1Cc2cc(N3CCCc4cc(C(=O)N5CCC(F)(F)CC5)cnc43)ccc2C1=O` [Example 1-82], the IC50 is below 10 nM.
The result for `O=C(O)c1ccc(N2CCOc3cc(C(=O)N4CCCCC4)c(Cl)cc32)cc1` [Example 2-3] reads below 10 nM.
The result for `CNC1CCCN(C(=O)c2cnc3c(c2)OCCN3c2ccn3c(=O)n(C)nc3c2)C1` (stereo not shown) [Example 32-1, 2-Methyl-7-(7-(3-(methylamino)piperidine-1-carbonyl)-2,3-dihydro-4H-pyrido[3,2-b][1,4]oxazin-4-yl)-[1,2,4]triazolo[4,3-a]pyridin-3(2H)-one Trifluoroacetate] reads above 100 nM; that for `COCCn1nc2cc(N3CCCc4cc(C(=O)N5CCC[C@H](CF)C5)cnc43)ccn2c1=O` [Example 1-116], below 10 nM; that for `Cn1nc2cc(N3CCOc4cc(C(=O)N5C=CCCC5)cnc43)ccn2c1=O` [Example 37-1, 2-Methyl-7-(7-(1,2,3,4-tetrahydropyridine-1-carbonyl)-2,3-dihydro-4H-pyrido[3,2-b][1,4]oxazin-4-yl)-[1,2,4]triazolo[4,3-a]pyridin-3(2H)-one], below 10 nM.
With `Cn1nc2cc(N3CCSc4cc(C(=O)N5CCCCC5)ccc43)ccn2c1=O` [Example 1-97] the figure was below 10 nM; with `O=C(O)c1ccc(N2CCOc3cc(C(=O)N4CCCCC4)ccc32)cn1` [Example 2-22], below 10 nM; with `Cn1nc2cc(N3CCCOc4cc(C(=O)N5CCC[C@@H](F)C5)cnc43)ccn2c1=O` [Example 8-62], below 10 nM.
Take `COCn1nc2cc(N3CCCc4cc(C(=O)N5CC[C@H](C)C5)cnc43)ccn2c1=O` [Example 8-120]: the IC50 is below 10 nM.
With `CCCn1nc2cc(N3CCOc4cc(C(=O)N5CCCCC5)cnc43)ccn2c1=O` [Example 1-215] the figure was below 10 nM.
With `CN1Cc2cc(N3CCOc4cc(C(=O)N5CCCC5)cnc43)ccc2C1=O` [Example 8-185] the figure was below 10 nM; with `CCn1nc2cc(N3CCCc4cc(C(=O)N5CCC[C@H](CF)C5)cnc43)ccn2c1=O` [Example 1-113], below 10 nM; with `CN1C(=O)c2ccc(N3CCOc4cc(C(=O)N5CCCCC5)cnc43)cc2C1=O` [Example 1-166], below 10 nM.
The result for `Cn1nc2cc(N3CCCc4cc(C(=O)N5CCOCC5)cnc43)ccn2c1=O` [Example 8-126] reads 10 to 100 nM; that for `CN1Cc2cc(N3CCOc4cc(C(=O)N5CCC(F)(F)CC5)cnc43)ncc2C1=O` [Example 1-46], 10 to 100 nM.
On to `Cn1nc2cc(N3CCOc4cc(C(=O)N5CCCC6(CCO6)C5)cnc43)ccn2c1=O` (stereo not shown) [Example 8-51], for which the IC50 was in the range of 10 to 100 nM.
With `O=C(c1cnc2c(c1)CCCN2c1ccc2c(=O)[nH]cnc2c1)N1CCC(F)(F)CC1` [Example 8-96] the figure was below 10 nM; with `Cn1nc2cc(N3CCCc4cc(C(=O)N5CCC[C@H](C(F)F)C5)cnc43)ccn2c1=O` [Example 8-143], below 10 nM; with `CC(C)(O)c1ccc(N2CCOc3cc(C(=O)N4CCCCC4)ccc32)cc1` [Example 10-1, (4-(4-(2-Hydroxypropan-2-yl)phenyl)-3,4-dihydro-2H-benzo[b][1,4]oxazin-7-yl)(piperidin-1-yl)methanone], below 10 nM.
For the compound `CCn1nc2cc(N3CCCc4cc(C(=O)N5CCCC[C@H]5C)cnc43)ccn2c1=O` [Example 8-157], the IC50 lay in the range of 10 to 100 nM.
The result for `COCn1nc2cc(N3CCCOc4cc(C(=O)N5CCCCC5)cnc43)ccn2c1=O` [Example 1-52] reads below 10 nM; that for `Cn1nc2cc(N3CCN(c4ncc(Cl)s4)c4cc(C(=O)N5CCC(F)(F)CC5)cnc43)ccn2c1=O` [Example 30-4], below 10 nM; that for `CCC(O)CNC(=O)c1cnc2c(c1)OCCN2c1ccn2c(=O)n(C)nc2c1` (stereo not shown) [Example 8-178], above 100 nM.
The result for `CC1CCN(C(=O)c2cnc3c(c2)OCCN3c2ccn3c(=O)n(C)nc3c2)CC1` [Example 8-44] reads below 10 nM; that for `CC1CN(C(=O)c2cnc3c(c2)CCCN3c2ccn3c(=O)n(C)nc3c2)CCC1(F)F` (stereo not shown) [Example 8-144], below 10 nM; that for `Cn1nc2cc(N3CCOc4cc(C(=O)N5CCC(O)CC5)cnc43)ccn2c1=O` [Example 8-230], below 10 nM.
With `Cn1nc2cc(N3CCOc4cc(C(=O)N5CCC[C@H](F)C5)cnc43)ccn2c1=O` [Example 8-27] the figure was below 10 nM; with `Cn1nc2cc(N3CCOc4cc(C(=O)N5CC(C)(F)C5)cnc43)ccn2c1=O` [Example 8-50], below 10 nM.
Take `Cn1nc2cc(N3CCCc4cc(SC5CCCCC5)cnc43)ccn2c1=O` [Example 1-135]: the IC50 lay in the range of 10 to 100 nM.

Broadly, the IC50 is the concentration that inhibits the measured activity by half.
